Test results from paper PMC8097242, “Galectin-4 N-Terminal Domain: Binding Preferences Toward A and B Antigens With Different Peripheral Core Presentations” (Frontiers in Chemistry, 2021).
pKd: −log10 of the molar value. Each block holds one compound with its values, some of them ahead of it.

Experiments:
Assay type in all cases: binding
[1] = target: T1, N-terminal CRD of hGalectin-4 (Gal-4N) (Homo sapiens, UniProt P56470); assay: 1H-15N HSQC NMR-based titrations (chemical shift perturbation) of 15N-labeled Gal-4N
T1 construct: N-terminal CRD of hGalectin-4 (amino acids 1–150, including an additional C-terminus His-Tag); His-Tag (C, cleaved yes); made in house; host or cells: E. coli BL21 (pET29b)
T1 sequence (P56470 1-150): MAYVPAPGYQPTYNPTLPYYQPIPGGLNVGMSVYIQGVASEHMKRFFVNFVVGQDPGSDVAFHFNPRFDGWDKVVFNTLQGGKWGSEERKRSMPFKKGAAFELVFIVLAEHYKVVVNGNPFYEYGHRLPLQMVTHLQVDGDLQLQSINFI
Protocol: The molecular recognition event was also analyzed from the perspective of the lectin. Thus, a chemical shift perturbation (CSP) analysis of the changes produced in the ^1H-^15N HSQC spectra recorded for ^15N-labeled Gal-4N upon addition of the different ligands was carried out. This analysis required the NH backbone NMR assignment of the lectin signals, following well-established triple resonance 3D NMR methods (see Materials and methods and Supplementary Information). The assignment protocol allowed assigning 80% of the NH backbone resonances. In addition to the ligands shown in Scheme 1, the corresponding non-fucosylated analogs and the H antigens (devoid of the terminal Gal/GalNAc moieties, see Supplementary Information), as well as lactose, were also employed. Thus, a full comparative analysis on the monosaccharide-specific effects on the lectin CSP was achieved.
The total volume for the NMR samples was 500/μl. The lectin was in phosphate-buffered saline (50 mM sodium phosphate, 150 mM NaCl, pH 7.4), either in D2O or 90:10 H2O:D2O depending on the NMR experiment. The pH was adjusted with the required amount of NaOH and HCl or NaOD and DCl.
experiments were acquired using an 800 MHz Bruker spectrometer with a cryoprobe (Bruker, Billerica, MA, United States). The samples were prepared using 50 μM of the ^15N-labeled lectin in the corresponding buffer in a 90:10 H2O:D2O ratio. The experiments were performed at 298 K. Six to nine points were recorded for each ligand and CSP and KD were calculated using CcpNmr Analysis 2.4.2.

[2] = target: T1, N-terminal CRD of hGalectin-4 (Gal-4N); assay: Isothermal titration calorimetry (ITC)
Protocol: Isothermal titration calorimetry experiments were performed using the MicroCal PEAQ-ITC calorimeter (Malvern Panalytical, Malvern, United Kingdom). Samples containing 100–200 μM of Gal-4N in PBS (50 mM sodium phosphate, pH 7.4, 300 mM NaCl) were titrated with stocks of 3–10 mM in PBS of glycans 4, 5, 7, 8, 9, and 11. During the automated experiment, small aliquots (2–3 μL) of the sugar stocks were added to the cell containing the lectin. Curve fitting to a single binding site model was performed with the MicroCal Origin 7 software.
Isothermal titratrion calorimetry (ITC). Isothermal Titration Calorimetry experiments were performed using MicroCal PEAQ-ITC calorimeter. Samples containing 100-200 µM of Gal-4N in PBS (50 mM sodium phosphate pH 7.4, 300 mM NaCl) were titrated with stocks of 3-10 mM in PBS of glycans A type 1, A type 2, A type 6, B type 1, B type 2 and B type 6. During the automated experiment, small aliquots (2-3 µL) of the sugar stocks were added to the cell containing the lectin. The association constants and the thermodynamic profile of the binding was calculated from the fitting of the titration data to a single binding site model.

[3] = target: T1, N-terminal CRD of hGalectin-4 (Gal-4N); assay: 1H Saturation Transfer Difference (STD) NMR epitope mapping
Protocol: ^1H-saturation transfer difference NMR spectra were acquired for mixtures of Gal-4N (50 μM) with a 50-fold excess of ligand. Protein aromatic irradiation afforded the best STD intensities and thus these are discussed henceforth. The STD NMR spectra were very similar among the different ligands with respect to both the observed glycan protons and their intensities. […] Severe proton overlapping precluded a full comparison among ligands, but key isolated ^1H NMR resonance signals permitted to highlight evident differences.
All the STD NMR experiments were performed using an 800 MHz Bruker spectrometer with a cryoprobe (Bruker, Billerica, MA, United States). The samples were prepared in the corresponding deuterated buffer. The temperature was 288 K for every experiment. An amount of 50 μM of the lectin with 50 equivalents of the ligand was employed for every experiment except for lactose, for which a 1:70 ratio was used. The STD spectra were acquired with 1,024 scans, 2 s of saturation time using a train of 50 ms Gaussian-shaped pulses, and 3 s of relaxation delay. The spin-lock filter applied to remove the signals of the lectin was set at 40 ms. The on-resonance frequency was set for the aromatic region at 6.58 ppm, while the off-resonance frequency was set at 100 ppm.
Supplementary Table S1. Relative STD-AF (Amplification factor) and STD percentage of each non overlapping proton of each ligand.

pKd ([1]; NMR titration, read-out: KD): 2.80
SMILES: OC[C@H]1O[C@@H](O[C@H]2[C@H](O)[C@@H](O)C(O)O[C@@H]2CO)[C@H](O)[C@@H](O)[C@H]1O (mixture of isomers) [Lactose]

-TΔS (kcal mol^–1) (ITC) [2]: 1.0 kcal mol^–1
ΔG (kcal mol^–1) (ITC) [2]: −4.9 kcal mol^–1
ΔH (kcal mol^–1) (ITC) [2]: −5.9 kcal mol^–1
Kd ([2]; PBS pH 7.4, single binding site model): 267 µM
SMILES: CC(=O)N[C@@H]1[C@@H](O[C@@H]2O[C@H](CO)[C@H](O)[C@H](O[C@H]3O[C@H](CO)[C@H](O)[C@H](O)[C@H]3NC(C)=O)[C@H]2O[C@@H]2O[C@@H](C)[C@@H](O)[C@@H](O)[C@@H]2O)[C@H](O)[C@@H](CO)O[C@H]1O [A type-1 (tetra)]

Kd ([1]; HSQC NMR-based titration, 50 μM 15N-labeled lectin, 298 K, read-out: KD (μM) (NMR)): 1380 µM
STD% ([3]; 1H-residue H1GalNAc): 95%
STD-AF ([3]; 1H-residue H1GalNAc, 50:1 ligand:lectin, 288 K): 0.0145
STD% ([3]; 1H-residue H1Galβ): 61%
STD-AF ([3]; 1H-residue H1Galβ): 0.0092
STD% ([3]; 1H-residue H2Galβ): 36%
STD-AF ([3]; 1H-residue H2Galβ): 0.0054
STD% ([3]; 1H-residue H3GalNAc): 28%
STD-AF ([3]; 1H-residue H3GalNAc): 0.0043
STD% ([3]; 1H-residue H3GalNAcb): 15%
STD-AF ([3]; 1H-residue H3GalNAcb): 0.0023
STD% ([3]; 1H-residue H3Galβ): 21%
STD-AF ([3]; 1H-residue H3Galβ): 0.0032
STD% ([3]; 1H-residue H4GalNAcb): 24%
STD-AF ([3]; 1H-residue H4GalNAcb): 0.0036
STD% ([3]; 1H-residue H4Galβ): 71%
STD-AF ([3]; 1H-residue H4Galβ): 0.0108
STD% ([3]; 1H-residue H5Galβ): 100%
STD-AF ([3]; 1H-residue H5Galβ): 0.0152
STD-AF ([3]; 1H-residue MetFuc): 0.0012
STD% ([3]; 1H-residue NHAc GalNAc): 68%
STD-AF ([3]; 1H-residue NHAc GalNAc): 0.0104
SMILES: CC(=O)N[C@H]1[C@@H](O[C@H]2[C@@H](O)[C@@H](CO)O[C@@H](O[C@H]3[C@@H](O)[C@@H](CO)O[C@@H](O[C@@H]4[C@@H](O)[C@H](O)O[C@H](CO)[C@@H]4O)[C@@H]3NC(C)=O)[C@@H]2O[C@@H]2O[C@@H](C)[C@@H](O)[C@@H](O)[C@@H]2O)O[C@H](CO)[C@H](O)[C@@H]1O [A type-4 (penta)]
